Assay results: patent US20260325655A1, “DECREASING THE INTRINSICALLY DISORDERED PROTEIN ALPHA-SYNUCLEIN’S LEVELS BY TARGETING ITS STRUCTURED MRNA WITH A RIBONUCLEASE TARGETING CHIMERA” (University of Florida Research Foundation, Incorporated, priority 2023, published 2026)
Like-named read-outs stand apart in the source and are kept apart here.

What was measured:
Format in all cases: cell-based, human
APP mRNA = APP mRNA in SH-SY5Y cells by RT-qPCR
Procedure: (§1) RNA extraction and reverse transcription-quantitative polymerase chain reaction (RT-qPCR). Total RNA was extracted from cells using a Quick-RNA MiniPrep Kit (Zymo Research) per the manufacturer's protocol including DNase treatment. For each sample, 200 ng of RNA was reverse transcribed into cDNA by using a qScript cDNA Synthesis Kit (QuantaBio) according to the manufacturer's instructions. To assess the relative mRNA levels, RT-qPCR was performed in triplicate using SYBR Green PCR mater mix (Applied Biosystems) with a Quant Studio 5 Real-Time PCR system. The relative levels of mRNA were calculated by using the ΔΔCt method as previously described.^8

SH-SY5Y cells = experiment: transcriptome-wide RNA-seq in SH-SY5Y cells; settings: for inhibition at 2 µM: Homo sapiens, not statistically significant
Procedure: RNA-seq analysis. Total RNA was quantified using the Qubit 2.0 Fluorometer (Invitrogen) and an Agilent 2100 Bioanalyzer RNA nano chip. Samples with RIN>9.0 were proceeded to library preparation using NEBNext Ultra II Directional RNA Kit (Cat. #E7760, NEB) following manufacture's protocol. Briefly, 200 ng of total RNA was depleted of ribosomal RNA using the NEBNext rRNA Depletion Module. The product was chemically fragmented using NEBNext Magnesium RNA Fragmentation Module (E6150S, NEB) the at 94° C. for 15 min. First-strand synthesis was performed with random primers, and second strand was synthesized with dUTP in place of dTTP. After end repair and 3′ adenylation, the cDNA was ligated with adaptors and then treated with USER enzyme (Uracil-specific excision reagent). The product was PCR amplified with Illumina-barcoded primers to generate the cDNA libraries. The final libraries were analyzed on the bioanalyzer DNA chips, pooled in equimolar ratios, and loaded onto the NextSeq 500 v2.5 flow cell and sequenced with 2×40 bp paired-end chemistry. The raw data were aligned to the human genome using STAR.^11 Read counts were extracted using featureCounts,^12 and the differential gene analysis was performed using Deseq2.^13

HHIPL1 = HHIPL1 protein in SH-SY5Y cells by Western blot; settings: 2 μM, 48 h
Procedure: Western blotting. After 48 h, cells were gently washed with ice-cold 1× DPBS, and total protein was extracted with Mammalian Protein Extraction Reagent (M-PER, Thermo Scientific) per the manufacturer's protocol. After quantifying protein concentration by using BCA Protein Assay Kit (Pierce Biotechnology), ~30 μg of total protein for each sample was separated using a 10% SDS-polyacrylamide gel and transferred onto a PVDF membrane. The membrane was fixed with 0.4% paraformaldehyde (pH=7.0) for 30 min at room temperature^9 and then blocked with 5% (w/v) non-fat dry milk in 1× TBST (1× TBS containing 0.1% Tween-20) for 1 h at room temperature. […] After washing 10 min each with 1× TBST three times, immunocomplex signals of each protein were detected by using a SuperSignal West Pico Chemiluminescent Substrate (Pierce Biotechnology) according to the manufacturer's protocol. The memebrane was then stripped by using 1× Stripping Buffer (200 mM glycine, pH 2.2, 4 mM SDS, 1% (v/v) Tween 20) at room temperature for 15 min, followed by blocking with 5% (w/v) non-fat dry milk at room temperature for 1 h. β-actin was used to normalize the levels of all proteins, measured by incubating with a primary antibody for β-actin (1:5000, 3700S from Cell Signaling Technology) at 4° C. overnight. […]

ferritin mRNA = ferritin mRNA in SH-SY5Y cells by RT-qPCR
Procedure: as §1

SNCA mRNA = experiment: competition of Synucleozid-2.0 with Syn-RiboTAC in SH-SY5Y cells; settings: Synucleozid-2.0 0.1-10 μM; Syn-RiboTAC constant 2 μM
Procedure: Syn-RiboTAC's activity is RNase L-dependent. To validate mode of action, RNase L was knocked down in SH-SY5Y cells with a pool of siRNAs (FIG. 5C), followed by treatment with Syn-RiboTAC. […] Syn-RiboTAC and Synucleozid-2.0 were validated to engage the same binding site in cells by a competition experiment using a constant concentration of Syn-RiboTAC(2 μM) and varying concentrations of Synucleozid-2.0 (0.1-10 μM).
as §1

[1] = of 447 detectable IRE-containing mRNAs

CCOC(=O)C1=C(Nc2ccccc2)S/C(=C\c2ccc(OCCOCCOCCOCCNC(=O)CCCOc3ccc(-n4c(SCC(=O)Nc5ccc6cn[nH]c6c5)nnc4-c4ccncc4)cc3)c(O)c2)C1=O [Syn-RiboTAC]
effect on APP mRNA level (APP mRNA): None of the three transcripts was affected
number of genes downregulated (SH-SY5Y cells; 2 μM, of 30,175 genes detected): 34
number of genes upregulated (SH-SY5Y cells; 2 μM, of 30,175 genes detected): 14
percent of genes affected (SH-SY5Y cells; 2 μM, of 30,175 genes detected): 0.16%
number of genes affected (SH-SY5Y cells; 2 μM, of 30,175 genes detected, log 2fold change >0.58, p<0.05): 48
inhibition at 2 µM (SH-SY5Y cells; SH-SY5Y, RNA-seq, read-out: reduction of BLVRB transcript level): ~20%
inhibition at 2 µM (SH-SY5Y cells; SH-SY5Y, RNA-seq, read-out: reduction of SNCA transcript abundance by RNA-seq): ~35%
APP, ferritin, and TfR transcript levels in the RNA-seq data (SH-SY5Y cells; RNA-seq, SH-SY5Y): unaffected
number of bound transcripts whose levels were reduced (cleaved) (SH-SY5Y cells; of 38 Chem-CLIP-bound transcripts detected in RNA-seq, including SNCA): four
number of IRE-containing mRNAs affected (SH-SY5Y cells; [1]): 19
number of IRE-containing mRNAs downregulated (SH-SY5Y cells; [1]): 11
number of IRE-containing mRNAs upregulated (SH-SY5Y cells; [1]): 8
reduction of HHIPL1 protein level (HHIPL1): ~ 20%
effect on ferritin mRNA level (ferritin mRNA): None of the three transcripts was affected

O=C(CSc1nnc(-c2ccncc2)n1-c1ccc(Br)cc1)Nc1ccc2cn[nH]c2c1 [Synucleozid-2.0]
SNCA mRNA levels in competition experiment (SNCA mRNA): dose-dependent restoration of SNCA mRNA levels
